Some test systems named below: A498 renal; A549 NSCLC; CCRF-CEM leukemia; EKVX NSCLC; HCC-2998 colon; K-562 leukemia; LOX IMVI melanoma; MALME-3M melanoma; OVCAR-3 ovarian; SNB-19 CNS.
Common to all, as to assay: growth of human tumour cells (NCI), 48 h

Where “and” joins values, the source holds several entries; their conditions need not be identical. Identical values can stand only once.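 Test compounds were applied to cells in 96-well plates for 48 hours at 5 doses. GI50 is the concentration that inhibits growth by half. The concentration for full growth arrest is given as TGI.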

As for `COC1CC(OC(=O)c2ccccc2)C(OC(=O)c2ccccc2)C(C)O1` (configuration not stated), the TGI in the experiment on A498 renal, in the experiment on A549 NSCLC, in the experiment on CCRF-CEM leukemia, in the experiment with EKVX NSCLC, with HCC-2998 colon and in the experiment with K-562 leukemia was above 100 µM each time. The TGI in the experiment on LOX IMVI melanoma, in the experiment on MALME-3M melanoma, in the experiment with OVCAR-3 ovarian and in the experiment with SNB-19 CNS was above 100 µM in each case.
For the molecule `C1=CC=C2NCCOCCNC3=CC=CC=CC3=NCCOCCN=C2C=C1`, the TGI with A498 renal, with A549 NSCLC, in the experiment on CCRF-CEM leukemia, with EKVX NSCLC, with HCC-2998 colon and in the experiment with K-562 leukemia was above 100 µM in each case. Further, the TGI with LOX IMVI melanoma is above 100 µM; with MALME-3M melanoma it was 76 µM; in the experiment with OVCAR-3 ovarian, above 100 µM; in the experiment on SNB-19 CNS, above 100 µM.
For the molecule `CN[C@@H]1C[C@H]2O[C@@](C)([C@@H]1OC)n1c3ccccc3c3c4c(c5c6ccccc6n2c5c31)C(=O)N[C@@H]4O`, the GI50 with A498 renal was 0.0053 µM; in the experiment on A549 NSCLC it was 0.0328 µM; in the experiment on HCC-2998 colon, 0.0534 µM; in the experiment on K-562 leukemia, 0.162 µM; in the experiment with MALME-3M melanoma it was 0.0154 µM; in the experiment on SNB-19 CNS, 0.0502 µM. The TGI with A498 renal was 0.0232 µM and 0.0257 µM; in the experiment on A549 NSCLC, 0.3 µM and 2.87 µM; in the experiment on CCRF-CEM leukemia it was 1.39 µM; in the experiment with EKVX NSCLC, 0.232 µM and 2.12 µM; in the experiment with HCC-2998 colon, 0.3 µM and 2.69 µM; with LOX IMVI melanoma it was 0.406 µM. Moreover, the TGI in the experiment with MALME-3M melanoma is 0.0589 µM and 0.461 µM; in the experiment on OVCAR-3 ovarian it was 0.3 µM and 0.722 µM; in the experiment on SNB-19 CNS, 0.161 µM and 0.77 µM.
Turning to `O=C1c2ccccc2-n2c1nc1ccccc1c2=O`, the TGI in the experiment with A498 renal was 59.8 µM; in the experiment with A549 NSCLC it was 17 µM; in the experiment on CCRF-CEM leukemia, above 100 µM; in the experiment on EKVX NSCLC, 35.3 µM; with HCC-2998 colon it was above 90.4 µM; with K-562 leukemia, above 44.6 µM. The TGI is 25.1 µM in the experiment with LOX IMVI melanoma, 29 µM in the experiment on MALME-3M melanoma, 30.2 µM with OVCAR-3 ovarian and above 91.2 µM with SNB-19 CNS.
As for `O=c1ccc(=O)c2c(=O)c3ccccc3c(=O)c1=2`, the TGI with A498 renal, in the experiment with A549 NSCLC, in the experiment with CCRF-CEM leukemia, in the experiment with EKVX NSCLC, in the experiment with HCC-2998 colon and in the experiment on K-562 leukemia was above 100 µM each time. The TGI with LOX IMVI melanoma is above 100 µM; in the experiment on MALME-3M melanoma, above 100 µM; in the experiment with OVCAR-3 ovarian, 55.2 µM; in the experiment with SNB-19 CNS, above 100 µM.
On to `CCN(CC)CCNc1n[n+]([O-])c2ccccc2[n+]1[O-]`, for which the GI50 is 5.47 µM and 2.54 µM in the experiment on A498 renal; 5.07 µM and 10.2 µM with A549 NSCLC. The TGI was 9.39 µM and 9.85 µM with A498 renal; 22.3 µM and 29.6 µM in the experiment on A549 NSCLC; 13.7 µM and 30.6 µM with CCRF-CEM leukemia; 44 µM in the experiment on EKVX NSCLC; 6.12 µM and 14.5 µM in the experiment with HCC-2998 colon; 6.45 µM and 18.5 µM with K-562 leukemia. Further, the TGI in the experiment with LOX IMVI melanoma is 28.3 µM; in the experiment on MALME-3M melanoma, 20.7 µM and 20.8 µM; with OVCAR-3 ovarian, 26.2 µM; in the experiment on SNB-19 CNS, > 72.1 µM and 56 µM.
In the case of `C=C1C(=O)OC2/C=C(\C=O)CC/C=C(\C)C(O)C[C@@H]12` (some centres not stated), the TGI in the experiment on A498 renal was 22.1 µM; in the experiment with A549 NSCLC it was 33.9 µM; in the experiment with CCRF-CEM leukemia, above 26.5 µM; in the experiment on EKVX NSCLC, 29.1 µM; in the experiment with HCC-2998 colon, 31.7 µM; in the experiment on K-562 leukemia, above 36.1 µM. In addition, the TGI in the experiment with LOX IMVI melanoma amounted to 18.5 µM; in the experiment on MALME-3M melanoma, 22.2 µM; in the experiment with OVCAR-3 ovarian, 14.5 µM; in the experiment with SNB-19 CNS, 29.1 µM.

The values are drawn from PubChem BioAssay (NCI).
